Experimental data published in ChEMBL document CHEMBL1201862, “PubChem BioAssay data set” (2004).
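Grown in 96-well plates, cells were treated for 48 hours with each compound at five concentrations. Insufficient inhibition: endpoint recorded as highest concentration tested. The concentration for 50% growth inhibition is given as GI50.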 Activity calls are given as the source filed them. Rule as the data show it: active = GI50 up to about 1.1 µM and inactive = higher.

Experiments:
Test in all cases: NCI tumour cell line growth inhibition, 48 h
[1] = test system: PC-3
[2] = test system: M14
[3] = test system: IGROV-1
[4] = test system: OVCAR-4
[5] = test system: SK-MEL-5
[6] = test system: 786-0
[7] = test system: MDA-N
[8] = test system: SR
[9] = test system: T47D
[10] = test system: K562
[11] = test system: CCRF-CEM
[12] = test system: SF-295
[13] = test system: SF-268
[14] = test system: RPMI-8226
[15] = test system: CAKI-1
[16] = test system: UO-31
[17] = test system: KM12
[18] = test system: SK-MEL-2
[19] = test system: OVCAR-3

Measured: GI50

Cc1nnc(N)nc1/C=C\c1ccc(Cl)cc1Cl
inactive: [1] 16.9 µM | [2] 29.6 µM | [3] 16.3 µM | [4] 34.5 µM | [5] 30.9 µM | [6] 40.7 µM | [7] 55.5 µM | [8] 46.6 µM | [9] 55.3 µM | [10] 77.8 µM | [11] 27.5 µM | [12] 23.4 µM | [13] 34.8 µM | [14] 45.4 µM | [15] > 100 µM | [16] 54.2 µM | [17] 18.6 µM | [18] 17 µM

C/C=C(\C)C(=O)OC1CC(OC(C)=O)C2(C(=O)OC)COC3C2C1(C)C1C2(C(=O)OC)OCC1(C3O)C1(O)C3CC(C4(O)C=COC4O3)C1(C)O2 (stereo unspecified)
inactive: [1] > 100 µM | [2] > 100 µM | [3] > 100 µM | [4] > 100 µM | [5] > 100 µM | [6] > 100 µM | [7] 34.4 µM | [8] > 100 µM | [9] > 100 µM | [10] > 100 µM | [12] > 100 µM | [13] > 100 µM | [19] > 100 µM | [14] > 100 µM | [15] > 100 µM | [16] > 100 µM | [17] > 100 µM | [18] > 100 µM

Cc1ccc(/N=C2\SC(=NN(C)C)S\C2=N/c2ccc(C)cc2)cc1
inactive: [1] > 100 µM | [3] > 100 µM | [4] > 100 µM | [5] > 100 µM | [6] > 100 µM | [7] > 100 µM | [8] > 100 µM | [9] > 100 µM | [10] > 100 µM | [11] > 100 µM | [12] > 100 µM | [13] > 100 µM | [14] > 100 µM | [15] > 100 µM | [16] > 100 µM | [17] > 100 µM | [18] > 100 µM

C[C@]12[C@@H]3CC[C@H]1[C@@H](OC(=O)Nc1cc([N+](=O)[O-])cc([N+](=O)[O-])c1)C(=O)N2CC3
inactive: [1] > 100 µM | [2] > 100 µM | [3] > 100 µM | [4] > 100 µM | [5] > 100 µM | [6] > 100 µM | [7] > 100 µM | [8] > 100 µM | [9] > 100 µM | [10] > 100 µM | [11] > 100 µM | [12] > 100 µM | [13] > 100 µM | [14] > 100 µM | [15] > 100 µM | [16] > 100 µM | [17] > 100 µM | [18] > 100 µM
